According to ChEMBL document CHEMBL3621077, “Synthesis of hybrid anticancer agents based on kinase and histone deacetylase inhibitors” (Medchemcomm, 2014):
The source made the active and inactive calls. No cut-off for these calls is given here.

Assays:
[1] = biological target: Histone deacetylase 5 (Homo sapiens, UniProt Q9UQL6); assay: Inhibition of HDAC5 (unknown origin)
[2] = biological target: T1, Protein deacetylase HDAC6 (Homo sapiens, UniProt Q9UBN7); assay: Inhibition of HDAC6 (unknown origin)
T1 sequence (Q9UBN7 whole entry): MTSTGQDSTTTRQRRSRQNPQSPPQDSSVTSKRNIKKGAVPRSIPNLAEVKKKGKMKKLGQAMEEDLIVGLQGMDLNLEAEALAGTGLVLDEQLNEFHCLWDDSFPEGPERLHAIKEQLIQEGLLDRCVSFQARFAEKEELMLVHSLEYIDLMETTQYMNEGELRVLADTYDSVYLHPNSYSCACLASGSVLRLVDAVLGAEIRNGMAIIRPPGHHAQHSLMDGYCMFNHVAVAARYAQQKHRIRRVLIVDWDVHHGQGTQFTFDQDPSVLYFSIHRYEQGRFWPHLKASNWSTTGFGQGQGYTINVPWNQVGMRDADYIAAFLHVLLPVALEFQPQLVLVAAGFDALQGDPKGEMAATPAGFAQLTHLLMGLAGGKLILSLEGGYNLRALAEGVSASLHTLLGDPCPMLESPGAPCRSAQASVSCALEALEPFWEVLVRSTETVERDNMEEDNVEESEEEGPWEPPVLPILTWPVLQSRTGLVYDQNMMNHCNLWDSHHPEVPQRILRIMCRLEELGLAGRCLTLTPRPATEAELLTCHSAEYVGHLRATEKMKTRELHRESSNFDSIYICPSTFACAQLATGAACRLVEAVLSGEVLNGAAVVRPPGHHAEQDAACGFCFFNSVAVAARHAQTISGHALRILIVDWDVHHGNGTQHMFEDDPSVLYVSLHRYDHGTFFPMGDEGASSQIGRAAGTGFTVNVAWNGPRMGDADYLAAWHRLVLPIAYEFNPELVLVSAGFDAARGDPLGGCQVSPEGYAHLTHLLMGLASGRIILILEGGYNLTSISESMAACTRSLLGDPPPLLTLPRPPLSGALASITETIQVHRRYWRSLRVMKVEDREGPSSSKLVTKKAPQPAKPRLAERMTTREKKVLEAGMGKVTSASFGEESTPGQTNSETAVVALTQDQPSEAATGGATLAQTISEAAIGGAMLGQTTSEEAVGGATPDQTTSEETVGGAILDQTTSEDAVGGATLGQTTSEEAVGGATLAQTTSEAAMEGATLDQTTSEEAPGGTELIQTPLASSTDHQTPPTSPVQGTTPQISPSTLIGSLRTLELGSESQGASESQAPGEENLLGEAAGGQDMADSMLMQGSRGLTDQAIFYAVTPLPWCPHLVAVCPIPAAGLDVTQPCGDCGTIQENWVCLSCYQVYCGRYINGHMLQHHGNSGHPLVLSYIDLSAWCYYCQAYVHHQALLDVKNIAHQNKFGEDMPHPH

[3] = biological target: Vascular endothelial growth factor receptor 2 (Homo sapiens, UniProt P35968); assay: Inhibition of VEGFR2 (unknown origin)
[4] = biological target: T2, Histone deacetylase 8 (Homo sapiens, UniProt Q9BY41); assay: Inhibition of HDAC8 (unknown origin)
T2 sequence (Q9BY41 whole entry): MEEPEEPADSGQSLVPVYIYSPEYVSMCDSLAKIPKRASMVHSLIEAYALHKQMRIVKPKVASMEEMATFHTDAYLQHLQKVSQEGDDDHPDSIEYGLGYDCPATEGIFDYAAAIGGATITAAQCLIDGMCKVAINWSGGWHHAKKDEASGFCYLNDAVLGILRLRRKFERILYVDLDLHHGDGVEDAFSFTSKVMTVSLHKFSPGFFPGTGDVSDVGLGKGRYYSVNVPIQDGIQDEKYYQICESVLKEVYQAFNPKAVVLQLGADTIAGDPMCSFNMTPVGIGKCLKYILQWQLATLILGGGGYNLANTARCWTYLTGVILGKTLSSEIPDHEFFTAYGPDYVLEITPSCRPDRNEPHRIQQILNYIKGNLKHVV

[5] = biological target: T3, Histone deacetylase 7 (Homo sapiens, UniProt Q8WUI4); assay: Inhibition of HDAC7 (unknown origin)
T3 sequence (Q8WUI4 whole entry): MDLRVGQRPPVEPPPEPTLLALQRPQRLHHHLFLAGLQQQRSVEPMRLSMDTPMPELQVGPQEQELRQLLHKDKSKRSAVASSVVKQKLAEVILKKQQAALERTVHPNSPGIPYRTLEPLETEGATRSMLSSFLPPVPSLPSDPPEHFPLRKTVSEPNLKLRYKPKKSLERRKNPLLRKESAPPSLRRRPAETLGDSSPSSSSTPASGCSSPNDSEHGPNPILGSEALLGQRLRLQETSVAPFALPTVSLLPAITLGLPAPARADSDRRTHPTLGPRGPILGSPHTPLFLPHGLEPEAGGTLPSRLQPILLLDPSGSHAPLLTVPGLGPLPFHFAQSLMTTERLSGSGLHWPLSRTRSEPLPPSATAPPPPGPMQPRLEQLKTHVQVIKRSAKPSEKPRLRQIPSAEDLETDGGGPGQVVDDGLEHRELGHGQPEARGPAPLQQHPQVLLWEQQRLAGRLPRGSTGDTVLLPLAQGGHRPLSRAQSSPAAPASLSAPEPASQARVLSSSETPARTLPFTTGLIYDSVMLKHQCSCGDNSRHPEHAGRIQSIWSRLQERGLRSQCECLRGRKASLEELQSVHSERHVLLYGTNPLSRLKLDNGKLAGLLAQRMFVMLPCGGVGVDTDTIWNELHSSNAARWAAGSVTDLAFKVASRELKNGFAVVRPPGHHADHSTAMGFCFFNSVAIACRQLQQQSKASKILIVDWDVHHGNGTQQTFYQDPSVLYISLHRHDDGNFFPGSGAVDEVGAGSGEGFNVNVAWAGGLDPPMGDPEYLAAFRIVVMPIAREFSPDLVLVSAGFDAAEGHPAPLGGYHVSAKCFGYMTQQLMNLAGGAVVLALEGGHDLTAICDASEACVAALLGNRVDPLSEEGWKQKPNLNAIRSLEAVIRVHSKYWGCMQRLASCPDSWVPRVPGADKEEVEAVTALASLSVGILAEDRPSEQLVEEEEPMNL

[6] = biological target: Histone deacetylase 2 (Homo sapiens, UniProt Q92769)
[7] = biological target: Platelet-derived growth factor receptor alpha (Homo sapiens, UniProt P16234); assay: Inhibition of PDGFRa (unknown origin)
[8] = biological target: Histone deacetylase 3 (Homo sapiens, UniProt O15379); assay: Inhibition of HDAC3 (unknown origin)
[9] = biological target: Histone deacetylase 1 (Homo sapiens, UniProt Q13547); assay: Inhibition of HDAC1 (unknown origin)
[10] = biological target: Histone deacetylase 4 (Homo sapiens, UniProt P56524); assay: Inhibition of HDAC4 (unknown origin)
[11] = biological target: Vascular endothelial growth factor receptor 1 (Homo sapiens, UniProt P17948); assay: Inhibition of VEGFR1 (unknown origin)
[12] = biological target: Histone deacetylase 9 (Homo sapiens, UniProt Q9UKV0); assay: Inhibition of HDAC9 (unknown origin)
[13] = biological target: Platelet-derived growth factor receptor beta (Homo sapiens, UniProt P09619); assay: Inhibition of PDGFRb (unknown origin)
[14] = organism: Xenopus laevis; details: at 10 to 100 µM
[15] = biological target: Histone deacetylase (Homo sapiens) (UniProt Q13547+O15379+Q9UBN7+Q92769+Q9UQL6+Q8WUI4+Q9BY41+Q96DB2+P56524+Q9UKV0+Q969S8); assay: Inhibition of HDAC isolated from human HeLa cells at 1 uM by fluorimetric assay; format: cell-free
[16] = biological target: Histone deacetylase; format: cell-based, Homo sapiens; details: hela
[17] = test system: MDA-MB-231; assay: Cytotoxicity against human MDA-MB-231 cells assessed as reversal of cell viability at 200 uM after 72 hrs by MTT assay in presence of SAHA; format: functional
[18] = test system: MDA-MB-231; assay: Cytotoxicity against human MDA-MB-231 cells assessed as reversal of cell viability at 10 uM after 72 hrs by MTT assay in presence of SAHA; format: functional, cell-based

Sequence of Histone deacetylase 4 (P56524 whole entry): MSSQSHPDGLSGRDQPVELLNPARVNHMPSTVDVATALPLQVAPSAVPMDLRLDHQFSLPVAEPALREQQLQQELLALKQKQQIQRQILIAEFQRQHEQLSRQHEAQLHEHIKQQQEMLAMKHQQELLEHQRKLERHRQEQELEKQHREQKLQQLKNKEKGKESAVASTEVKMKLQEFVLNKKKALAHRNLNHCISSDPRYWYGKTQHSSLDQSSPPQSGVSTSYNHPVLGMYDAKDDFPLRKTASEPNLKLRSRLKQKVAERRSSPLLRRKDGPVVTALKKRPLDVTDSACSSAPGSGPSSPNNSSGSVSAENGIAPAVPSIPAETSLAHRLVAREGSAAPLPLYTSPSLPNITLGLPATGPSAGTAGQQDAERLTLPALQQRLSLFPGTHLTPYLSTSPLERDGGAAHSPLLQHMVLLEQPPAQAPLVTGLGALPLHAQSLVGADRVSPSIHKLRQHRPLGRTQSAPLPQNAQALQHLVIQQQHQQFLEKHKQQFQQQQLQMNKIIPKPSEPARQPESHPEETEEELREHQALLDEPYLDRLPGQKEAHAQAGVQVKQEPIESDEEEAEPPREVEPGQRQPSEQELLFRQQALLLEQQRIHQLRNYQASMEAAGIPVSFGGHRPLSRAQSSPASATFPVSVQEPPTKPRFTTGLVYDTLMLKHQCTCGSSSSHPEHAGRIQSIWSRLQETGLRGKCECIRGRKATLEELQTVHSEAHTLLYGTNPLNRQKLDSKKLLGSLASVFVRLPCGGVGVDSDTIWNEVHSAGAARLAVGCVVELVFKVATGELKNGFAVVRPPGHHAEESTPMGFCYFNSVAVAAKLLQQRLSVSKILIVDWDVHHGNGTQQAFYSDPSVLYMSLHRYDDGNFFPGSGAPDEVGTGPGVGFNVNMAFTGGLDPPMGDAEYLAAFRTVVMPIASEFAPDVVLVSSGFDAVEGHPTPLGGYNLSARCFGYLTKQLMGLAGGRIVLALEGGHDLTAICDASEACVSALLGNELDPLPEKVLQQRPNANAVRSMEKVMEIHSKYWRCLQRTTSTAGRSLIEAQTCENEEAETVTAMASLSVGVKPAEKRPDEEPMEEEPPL
Sequence of Histone deacetylase 3 (O15379 whole entry): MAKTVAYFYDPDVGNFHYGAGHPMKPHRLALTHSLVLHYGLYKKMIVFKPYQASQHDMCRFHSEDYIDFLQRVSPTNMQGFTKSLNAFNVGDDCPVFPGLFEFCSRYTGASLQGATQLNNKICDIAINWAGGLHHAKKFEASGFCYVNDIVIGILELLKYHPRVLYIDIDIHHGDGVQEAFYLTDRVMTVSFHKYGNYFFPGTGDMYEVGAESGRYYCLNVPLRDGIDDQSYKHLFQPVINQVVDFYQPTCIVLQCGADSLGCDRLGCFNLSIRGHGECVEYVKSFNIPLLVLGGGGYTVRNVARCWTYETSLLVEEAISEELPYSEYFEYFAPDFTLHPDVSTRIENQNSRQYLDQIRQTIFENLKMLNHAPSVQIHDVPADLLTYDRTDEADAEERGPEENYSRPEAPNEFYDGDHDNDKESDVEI
Sequence of Vascular endothelial growth factor receptor 1 (P17948 whole entry): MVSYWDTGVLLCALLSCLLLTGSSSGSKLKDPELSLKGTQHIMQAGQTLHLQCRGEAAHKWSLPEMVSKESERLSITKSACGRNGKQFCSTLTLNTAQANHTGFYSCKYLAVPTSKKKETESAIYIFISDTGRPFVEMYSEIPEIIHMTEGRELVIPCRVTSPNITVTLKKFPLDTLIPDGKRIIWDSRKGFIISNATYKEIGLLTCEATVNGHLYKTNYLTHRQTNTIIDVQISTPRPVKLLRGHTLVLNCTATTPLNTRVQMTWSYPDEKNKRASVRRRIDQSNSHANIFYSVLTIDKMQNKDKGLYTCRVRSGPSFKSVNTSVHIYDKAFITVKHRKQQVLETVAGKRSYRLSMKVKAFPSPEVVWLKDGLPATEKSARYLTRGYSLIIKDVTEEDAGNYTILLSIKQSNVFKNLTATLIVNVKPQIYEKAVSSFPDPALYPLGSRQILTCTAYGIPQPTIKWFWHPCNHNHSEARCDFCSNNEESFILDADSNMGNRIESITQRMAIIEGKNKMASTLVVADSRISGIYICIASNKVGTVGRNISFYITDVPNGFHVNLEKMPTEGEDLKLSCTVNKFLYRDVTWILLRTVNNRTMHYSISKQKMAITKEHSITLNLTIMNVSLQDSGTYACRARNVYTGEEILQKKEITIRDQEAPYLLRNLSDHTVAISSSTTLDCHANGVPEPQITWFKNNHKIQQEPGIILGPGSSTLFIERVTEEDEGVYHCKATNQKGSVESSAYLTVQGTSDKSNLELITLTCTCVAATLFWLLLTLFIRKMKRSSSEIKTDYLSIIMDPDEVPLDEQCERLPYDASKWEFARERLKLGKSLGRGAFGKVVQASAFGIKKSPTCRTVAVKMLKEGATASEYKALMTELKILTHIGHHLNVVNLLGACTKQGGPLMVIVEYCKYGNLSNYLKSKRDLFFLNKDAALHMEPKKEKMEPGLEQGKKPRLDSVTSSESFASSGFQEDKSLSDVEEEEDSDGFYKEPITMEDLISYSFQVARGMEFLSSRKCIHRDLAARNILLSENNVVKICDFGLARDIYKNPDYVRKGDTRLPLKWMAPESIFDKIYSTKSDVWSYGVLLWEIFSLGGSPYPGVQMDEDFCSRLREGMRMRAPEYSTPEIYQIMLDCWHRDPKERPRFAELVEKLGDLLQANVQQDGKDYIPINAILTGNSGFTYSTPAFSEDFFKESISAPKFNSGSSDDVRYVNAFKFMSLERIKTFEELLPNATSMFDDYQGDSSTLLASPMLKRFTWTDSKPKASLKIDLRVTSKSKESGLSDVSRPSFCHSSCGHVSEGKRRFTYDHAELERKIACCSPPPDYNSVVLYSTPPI
Sequence of Histone deacetylase 2 (Q92769 whole entry): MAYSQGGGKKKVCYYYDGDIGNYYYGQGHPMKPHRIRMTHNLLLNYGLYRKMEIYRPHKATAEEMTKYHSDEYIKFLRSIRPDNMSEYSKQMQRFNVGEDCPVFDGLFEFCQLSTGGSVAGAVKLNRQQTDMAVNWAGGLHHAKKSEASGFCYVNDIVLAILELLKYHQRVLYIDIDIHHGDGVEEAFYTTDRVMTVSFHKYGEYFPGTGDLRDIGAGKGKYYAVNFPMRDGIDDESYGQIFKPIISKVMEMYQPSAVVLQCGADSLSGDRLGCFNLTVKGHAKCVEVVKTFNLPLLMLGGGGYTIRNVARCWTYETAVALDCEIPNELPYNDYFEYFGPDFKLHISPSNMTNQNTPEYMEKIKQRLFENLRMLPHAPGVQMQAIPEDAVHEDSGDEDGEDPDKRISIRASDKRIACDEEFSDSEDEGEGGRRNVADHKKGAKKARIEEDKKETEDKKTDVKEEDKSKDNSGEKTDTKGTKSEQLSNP
Sequence of Histone deacetylase 1 (Q13547 whole entry): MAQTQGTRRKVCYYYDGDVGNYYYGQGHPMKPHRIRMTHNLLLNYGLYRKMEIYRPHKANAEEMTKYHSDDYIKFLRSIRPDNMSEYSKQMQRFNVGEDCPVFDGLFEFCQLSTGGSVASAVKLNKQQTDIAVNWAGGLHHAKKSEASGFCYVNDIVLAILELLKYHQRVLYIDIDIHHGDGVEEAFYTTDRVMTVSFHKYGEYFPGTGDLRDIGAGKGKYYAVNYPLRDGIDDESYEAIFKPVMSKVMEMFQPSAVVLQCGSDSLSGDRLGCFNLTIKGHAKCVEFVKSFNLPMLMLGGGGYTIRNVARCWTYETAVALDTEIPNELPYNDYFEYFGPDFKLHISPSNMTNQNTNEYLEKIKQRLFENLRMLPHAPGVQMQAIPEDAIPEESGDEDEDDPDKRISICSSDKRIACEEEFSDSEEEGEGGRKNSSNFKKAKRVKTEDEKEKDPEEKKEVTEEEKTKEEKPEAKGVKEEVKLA
Sequence of Histone deacetylase 5 (Q9UQL6 whole entry): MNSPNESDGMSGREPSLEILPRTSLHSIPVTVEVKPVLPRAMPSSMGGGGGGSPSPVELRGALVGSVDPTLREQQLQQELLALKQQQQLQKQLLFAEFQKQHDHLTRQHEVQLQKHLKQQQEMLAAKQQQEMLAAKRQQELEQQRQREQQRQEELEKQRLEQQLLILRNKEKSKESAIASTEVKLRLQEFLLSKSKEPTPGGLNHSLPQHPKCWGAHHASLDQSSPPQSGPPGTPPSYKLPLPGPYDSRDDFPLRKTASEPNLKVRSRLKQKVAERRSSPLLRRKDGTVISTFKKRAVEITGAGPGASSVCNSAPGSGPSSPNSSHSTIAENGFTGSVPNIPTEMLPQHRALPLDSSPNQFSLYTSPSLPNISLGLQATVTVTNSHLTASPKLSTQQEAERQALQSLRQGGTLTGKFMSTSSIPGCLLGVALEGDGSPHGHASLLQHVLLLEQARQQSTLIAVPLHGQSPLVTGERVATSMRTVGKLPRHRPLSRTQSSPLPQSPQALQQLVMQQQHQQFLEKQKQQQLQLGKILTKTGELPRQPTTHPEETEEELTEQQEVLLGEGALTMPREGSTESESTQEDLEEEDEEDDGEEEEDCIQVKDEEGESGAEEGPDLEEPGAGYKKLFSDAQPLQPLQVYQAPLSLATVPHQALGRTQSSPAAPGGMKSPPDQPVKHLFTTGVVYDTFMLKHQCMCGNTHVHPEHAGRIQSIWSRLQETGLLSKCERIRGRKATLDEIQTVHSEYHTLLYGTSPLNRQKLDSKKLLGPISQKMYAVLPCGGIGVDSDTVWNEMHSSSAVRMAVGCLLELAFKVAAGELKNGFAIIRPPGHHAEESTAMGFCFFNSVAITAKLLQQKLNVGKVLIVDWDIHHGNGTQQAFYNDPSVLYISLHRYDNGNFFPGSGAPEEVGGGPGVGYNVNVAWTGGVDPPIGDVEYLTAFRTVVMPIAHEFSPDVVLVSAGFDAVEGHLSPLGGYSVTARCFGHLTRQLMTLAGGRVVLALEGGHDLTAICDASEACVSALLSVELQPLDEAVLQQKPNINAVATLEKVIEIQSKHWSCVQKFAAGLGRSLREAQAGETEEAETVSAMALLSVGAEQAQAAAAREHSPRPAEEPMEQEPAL

Row | Structure (SMILES) | IC50 [1] | IC50 [3] | IC50 [5] | IC50 [6] | IC50 [7] | IC50 [8] | IC50 [9] | IC50 [10] | IC50 [11] | IC50 [12] | IC50 [13] | IC50 ([3]; read-out: IC50) | IC50 ([13]; read-out: IC50) | also measured
1 | Nc1ccccc1NC(=O)CCCCC(=O)Nc1ccc2c(c1)/C(=C/c1ccc[nH]1)C(=O)N2 | Not Active | Not Active | Not Active | 3290 nM | Not Active | 2.42 nM | 1260 nM | Not Active | Not Active | Not Active | Not Active |  |  | IC50 [2]: Not Active; IC50 [4]: Not Active
2 | Cc1cc(C)c(/C=C2\C(=O)Nc3ccccc32)[nH]1 |  |  |  |  |  |  |  |  |  |  |  |  |  | inhibition [14]: Active
3 | Nc1ccccc1NC(=O)CCCCCCC(=O)Nc1ccc2c(c1)/C(=C/c1ccc[nH]1)C(=O)N2 | Not Active | Not Active | Not Active | 2230 nM | Not Active | 394 nM | 373 nM | Not Active | Not Active | Not Active | Not Active |  |  | IC50 ([2]; read-out: IC50): 4610 nM; IC50 [4]: Not Active
4 | CSCCCNC(=O)c1ccc2c(c1)/C(=C/c1[nH]c(C)cc1C)C(=O)N2 |  |  |  |  |  |  |  |  | Not Active |  |  | 38 nM | 8 nM | 
5 | O=C1Nc2ccc(O)cc2/C1=C/c1ccc[nH]1 |  |  |  |  |  |  |  |  |  |  |  | 405 nM | 637 nM | IC50 ([7]; read-out: IC50): 406 nM; Activity [17]: 70%; IC50 ([11]; read-out: IC50): 116 nM; Activity [18]: Active
6 | CSCCCNC(=O)c1ccc2c(c1)NC(=O)/C2=C\c1[nH]c(C)cc1C |  | Not Active |  |  |  |  |  |  | Not Active |  | Not Active |  |  | 

More lines, main results first:

Row | IC50 [1] | IC50 [3] | IC50 [5] | IC50 [6] | IC50 [7] | IC50 [8] | IC50 [9] | IC50 [10] | IC50 [11] | IC50 [12] | IC50 [13] | IC50 ([3]; read-out: IC50) | IC50 ([13]; read-out: IC50) | Structure (SMILES) | also measured
7 | Not Active |  | Not Active |  |  |  |  | Not Active |  | Not Active |  |  |  | O=C(CCCCCCC(=O)Nc1ccccc1)NO [VORINOSTAT] | 
8 |  | Not Active |  |  | Not Active |  |  |  | Not Active |  | Not Active |  |  | Cc1cc(C)c(/C=C2\C(=O)Nc3ccc(NC(=O)CCCCCCC(=O)NO)cc32)[nH]1 | inhibition [15]: > 20%; IC50 [16]: 443 nM
9 | Not Active |  | Not Active | 20.4 nM | Not Active | 9.77 nM | 9.37 nM | Not Active |  | Not Active |  | 290 nM | 518 nM | O=C(CCCCC(=O)Nc1ccc2c(c1)/C(=C/c1ccc[nH]1)C(=O)N2)NO | IC50 ([2]; read-out: IC50): 1.61 nM; IC50 ([4]; read-out: IC50): 312 nM; IC50 ([11]; read-out: IC50): 205 nM; IC50 [16]: 935 nM
